Measurements reported in patent US20250115571A1, “OXOPIPERAZINE DERIVATIVES” (Inthera Bioscience AG, priority 2017, published 2025).

Experiments:
HCT116 = experiment: 9-day colony survival assay (CFA); type: cell-based; conditions: Homo sapiens, HCT-116, 216 h, HCT116 (colon), read-out: GI50 (50% growth inhibition)
[1] = system: HCT116 human colon cancer cells; experiment: Cell-derived xenograft mouse model for colorectal cancer (HCT116 CDX); type: in vivo; conditions: for T/C (tumor-to-control ratio, volume/volume): day 37
Protocol: Female BALB/c nude mice (8-9 weeks of age) were injected with HCT116 human colon cancer cells. The cells were inoculated subcutaneously into the left flank of 48 mice. When tumors reached a mean volume of approximately 100 mm^3, mice were randomly assigned to eight treatment groups of each six mice (TABLE 14). Body weights were measured three times weekly prior to the initiation of dosing and daily thereafter. Tumor burden was assessed by caliper measurement twice weekly. Dosing breaks were applied when tolerability issues arose (body weight loss>10%). The study was terminated four weeks post first dosing. The experiment was performed in the Crown Bioscience Ltd. (Beijing) testing facility (Ground Floor, Light Muller Building, Changping Sector of Zhongguancun Scientific Park, No. 21 Huoju Road, Changping District, Beijing, CHN).

[2] = system: hormone-refractory DU-145 human prostate cancer cells; experiment: Cell-derived xenograft mouse model for prostate cancer (DU-145 CDX); type: in vivo; conditions: p.o. QD × 4 weeks; for T/C (tumor-to-control ratio, volume/volume): day 35
Protocol: Male BALB/c nude mice (7-9 weeks of age) were injected with hormone-refractory DU-145 human prostate cancer cells. The cells were inoculated subcutaneously into the left flank of 48 mice. When tumors reached a mean volume of approximately 105 mm^3, mice were randomly assigned to eight treatment groups of each six mice (TABLE 12). Body weights were measured three times weekly prior to the initiation of dosing and daily thereafter. Tumor burden was assessed by caliper measurement three times weekly. Dosing breaks were applied when tolerability issues arose (body weight loss>10%). The study was terminated 4 weeks post first dosing. The experiment was performed in the Crown Bioscience Ltd. (Beijing) testing facility (Ground Floor, Light Muller Building, Changping Sector of Zhongguancun Scientific Park, No. 21 Huoju Road, Changping District, Beijing, CHIN).

A549 = experiment: 9-day colony survival assay (CFA); type: cell-based; conditions: Homo sapiens, 216 h, A549 (lung), read-out: GI50 (50% growth inhibition)
CaSki = experiment: 9-day colony survival assay (CFA); type: cell-based; conditions: Homo sapiens, Ca-Ski, 216 h, CaSki (cervix), read-out: GI50 (50% growth inhibition)
Text: Cell culture. CaSki cells (cervical cancer) were obtained from CLS GmbH, Eppelheim, Germany (cat #300145) and subcultured in ready-to-use RPMI1640 Media (CLS #820700) after addition of “Antibiotic Antimycotic Solution” (Sigma-Aldrich, St Louis, USA) at 1:100 dilution. The cells were expanded, and aliquots kept frozen in liquid nitrogen according to manufacturer's instructions; tested for mycoplasma contamination and genotyped (Microsynth AG, Balgach, Switzerland). Once thawed, aliquots were passaged every second or third day at a seed density of 20′000 cells/cm^2; and used for a maximum of twenty passages. For passaging, cell culture flasks were rinsed twice with Ca++/Mg++-free Phosphate-Buffered Saline (DPBS, CLS #860015) and incubated with Accutase (CLS #830100) for 15 min at 37° C. Cells were resuspended in a four-fold volume of ready-to-use RPMI, centrifuged at 300 g for ten minutes, the supernatant discarded and the cells resuspended in ready-to-use RPMI1640 by pipetting up and down five times with a serological pipette. Cell density was determined with a Via-1 Cassette (Chemometec, Allerod, Denmark) on a Nucleocounter NC 3000 (Chemometec). Where not stated, consumables and chemicals were purchased from well-known suppliers.
Preparation of the cells for CFA. Cell culture flasks were rinsed twice with DPBS and incubated with Accutase for 15 min at 37° C. Cells were resuspended in a four-fold volume of ready-to use RPMI, centrifuged at 300 g for ten minutes, the supernatant discarded and the cells resuspended in ready-to-use RPMI1640 by pipetting up and down ten times with a serological pipette. Cell density was determined with a Via-1 Cassette on a Nucleocounter NC 3000. The required amount of cells was first diluted 1:10 in ready-to-use RPMI; cells pipetted five times up-down with a serological pipette; and the 1:10 solution added to the final volume needed for the whole assay setup. Cells were mixed again by pipetting up and down twenty times with a serological pipette. The cell density used for the experiment was of 140 cells/ml.
Seeding. Cells were seeded row-wise in 12-well plates, while triplicates were treated column-wise (i.e. all the first rows were seeded first, then the second rows, and finally the third rows). One and a half ml cell suspension solution (a total of 210 cells) were added per well.
Treatment. Compound stock solutions were prepared at a concentration of 30 mM in 50% DMSO/50% water; and diluted in the same solution so that the volume added to the wells was of 2.5 μl and the final DMSO well concentration of 0.08%. Untreated cells (negative controls) were incubated in a) medium only; and b) 0.08% DMSO. […] The plates were swirled gently after addition of the compounds and the cells incubated for nine days at 37° C. Culture incubation solutions were replaced after five days.
Staining. Colonies were washed twice with ice-cold DPBS and fixed on ice with 1 ml ice-cold 10% methanol solution for 30 min. The methanol solution was removed and colonies incubated with 0.1% Crystal Violet/DBPS for 20 min at room temperature. The wells were rinsed consecutively with 1.5, 1, and 0.5 ml water at room temperature and let dry.
Destaining and data evaluation. […] Absorbance was measured at 600 nm with a SpectraMax M2e reader (Molecular Devices, Sunnyvale, CA, USA). Percentage of colony formation was calculated from the average of the well triplicates compared to the untreated DMSO controls after subtraction of blank values. […]

Structure (SMILES)	GI50 (HCT116) [nM]	Tumor Size day 37 (Mean ± SEM) ([1]; 6 mg/kg, p.o. QD) [mm^3]	p vs. Group-2 (Avastin, 10 mg/kg, BIW) ([1]; 6 mg/kg, p.o. QD)	T/C (tumor-to-control ratio, volume/volume) ([1]; 6 mg/kg, p.o. QD) [%]	Tumor Size day 35 (Mean ± SEM) ([2]; 3 mg/kg) [mm^3]	T/C (tumor-to-control ratio, volume/volume) ([2]; 3 mg/kg) [%]	GI50 (A549) [nM]	GI50 (CaSki) [nM]	Tumor Size day 37 (Mean ± SEM) ([1]; 3 mg/kg, p.o. QD) [mm^3]	p vs. Group-2 (Avastin, 10 mg/kg, BIW) ([1]; 3 mg/kg, p.o. QD)	T/C (tumor-to-control ratio, volume/volume) ([1]; 3 mg/kg, p.o. QD) [%]	Tumor Size day 37 (Mean ± SEM) ([1]; 20 mg/kg, p.o. BIW) [mm^3]	p vs. Group-2 (Avastin, 10 mg/kg, BIW) ([1]; 20 mg/kg, p.o. BIW)	T/C (tumor-to-control ratio, volume/volume) ([1]; 20 mg/kg, p.o. BIW) [%]	Tumor Size day 35 (Mean ± SEM) ([2]; 1 mg/kg) [mm^3]	T/C (tumor-to-control ratio, volume/volume) ([2]; 1 mg/kg) [%]	Tumor Size day 35 (Mean ± SEM) ([2]; 6 mg/kg) [mm^3]	T/C (tumor-to-control ratio, volume/volume) ([2]; 6 mg/kg) [%]	Tumor Size day 35 (Mean ± SEM) ([2]; 10 mg/kg) [mm^3]	T/C (tumor-to-control ratio, volume/volume) ([2]; 10 mg/kg) [%]
CC(C)C[C@@H]1NCCN([C@@H](CC(C)C)C(=O)N2CCC3(C[C@@H]2C)OCC(CN2CCC4(CC2)CC4)CO3)C1=O (stereo partly drawn) [Compound 279, (3S)-1-[(2S)-4-methyl-1-oxo-1-[(3s,6s,8S)-3-{6-azaspiro[2.5]octan-6-ylmethyl}-8-methyl-1,5-dioxa-9-azaspiro[5.5]undec-an-9-yl]pentan-2-yl]-3-(2-methylpropyl)piper-azin-2-one (^≠), isomer Z]	1	1064.0 ± 141.1	Group-2 vs. Group-6, p = 0.070;	89.6	516 ± 59	74.5	5	4	–	–	–	–	–	–	–	–	–	–	–	–
CC(C)C[C@@H]1NCCN([C@@H](CC(C)C)C(=O)N2CCC3(C[C@@H]2C)OCC(CN2CCCC2)CO3)C1=O (stereo partly drawn) [Compound 258, (3S)-1-[(2S)-4-methyl-1-oxo-1-[(3s,6s,8S)-8-methyl-3-(pyrrolidin-1-ylmethyl)-1,5-dioxa-9-azaspiro[5.5]undec-an-9-yl]pentan-2-yl]-3-(2-methylpropyl)piper-azin-2-one (^≠), isomer Z]	1.5	253.2 ± 39.2	Group-2 vs. Group-4, p = 0.001;	21.3	105 ± 25	15.2	5	2	436.2 ± 58.9	Group-2 vs. Group-5, p = 0.028;	36.7	696.8 ± 93.7	Group-2 vs. Group-3, p = 0.865;	58.7	378 ± 27	54.5	32 ± 2	4.6	47 ± 4	6.8
CC(C)C[C@@H]1NCCN([C@@H](CC(C)C)C(=O)N2CCC3(C[C@@H]2C)OCC(CN2CCC2)CO3)C1=O (stereo partly drawn) [Compound 284, (3S)-1-[(2S)-4-methyl-1-oxo-1-[(3s,6s,8S)-3-(azetidin-1-ylmethyl)-8-methyl-1,5-dioxa-9-azaspiro[5.5]undec-an-9-yl]pentan-2-yl]-3-(2-methylpropyl)piper-azin-2-one (^≠), isomer Z]	1.5	942.0 ± 114.9	Group-2 vs. Group-7, p = 0.165;	79.3	347 ± 48	50.1	10	6	827.4 ± 125.7	Group-2 vs. Group-8, p = 0.509;	69.7	–	–	–	–	–	–	–	–	–
